Measured values reported in ChEMBL document CHEMBL4043292, “Discovery and Optimization of Phosphopantetheine Adenylyltransferase Inhibitors with Gram-Negative Antibacterial Activity” (J Med Chem, 2018).
≈ marks a conversion by molar mass, not a printed value.

What was measured:
[1] = tested on: Escherichia coli; assay: microbe, parasite or virus in culture; conditions: BW25113, 20 h
Description: Antibacterial activity against Escherichia coli BW25113 after 20 hrs by broth microdilution method

[2] = physchem; conditions: buffer, pH 7.4
Description: Lipophilicity, log D of the compound at pH 7.4

[3] = tested on: Escherichia coli; assay: microbe, parasite or virus in culture; conditions: JW5503-1, 20 h
Description: Antibacterial activity against tolC deficient Escherichia coli JW5503-1 after 20 hrs by broth microdilution method

[4] = tested on: Escherichia coli; assay: Ratio of IC50 for PPAT in Escherichia coli BW25113 assessed as reduction in level of CoA-SH metabolite to IC50 for PPAT in tolC deficient Escherichia coli JW5503-1 assessed as reduction in level of CoA-SH metabolite
[5] = Inhibition of PPAT in Escherichia coli BW25113 assessed as reduction in level of CoA-SH metabolite by mass spectrometric method
[6] = Inhibition of PPAT in tolC deficient Escherichia coli JW5503-1 assessed as reduction in level of CoA-SH metabolite by mass spectrometric method
[7] = tested on: Pseudomonas aeruginosa; assay: microbe, parasite or virus in culture; conditions: K1119, 20 h
Description: Antibacterial activity against mexAB deficient Pseudomonas aeruginosa K1119 after 20 hrs by broth microdilution method

[8] = tested on: Escherichia coli; assay: microbe, parasite or virus in culture; conditions: JW0451-2, 20 h
Description: Antibacterial activity against acrB deficient Escherichia coli JW0451-2 after 20 hrs by broth microdilution method

[9] = tested on: Pseudomonas aeruginosa; assay: microbe, parasite or virus in culture; conditions: ATCC 35151, 20 h
Description: Antibacterial activity against Pseudomonas aeruginosa ATCC 35151 after 20 hrs by broth microdilution method

[10] = target: T1, Bifunctional coenzyme A synthase (Homo sapiens) (UniProt Q13057)
T1 sequence (whole entry): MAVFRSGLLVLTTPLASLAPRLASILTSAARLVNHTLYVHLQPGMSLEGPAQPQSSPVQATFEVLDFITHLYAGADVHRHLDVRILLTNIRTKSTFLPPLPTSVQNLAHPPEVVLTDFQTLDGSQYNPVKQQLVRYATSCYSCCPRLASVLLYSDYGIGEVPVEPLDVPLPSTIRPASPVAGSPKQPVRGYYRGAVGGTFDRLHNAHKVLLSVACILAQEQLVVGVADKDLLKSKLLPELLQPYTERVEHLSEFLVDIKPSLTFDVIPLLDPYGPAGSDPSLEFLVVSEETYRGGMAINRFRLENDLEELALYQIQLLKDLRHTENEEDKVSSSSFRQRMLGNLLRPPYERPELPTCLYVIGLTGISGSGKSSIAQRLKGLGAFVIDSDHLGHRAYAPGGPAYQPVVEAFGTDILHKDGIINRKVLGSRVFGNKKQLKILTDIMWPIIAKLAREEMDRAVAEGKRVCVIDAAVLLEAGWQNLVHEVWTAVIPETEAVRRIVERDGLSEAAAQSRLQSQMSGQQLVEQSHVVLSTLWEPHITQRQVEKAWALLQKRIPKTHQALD
Description: Inhibition of human coaSY expressed in tolC deficient Escherichia coli JWK0002 assessed as bacterial growth inhibition after 20 hrs by broth microdilution method

[11] = tested on: Escherichia coli; assay: microbe, parasite or virus in culture; conditions: RFM795, 20 h
Description: Antibacterial activity Escherichia coli RFM795 harboring frame deletion of 23 amino acids in lptD gene after 20 hrs by broth microdilution method

[12] = tested on: Pseudomonas aeruginosa; assay: microbe, parasite or virus in culture; conditions: PAO1, 20 h
Description: Antibacterial activity against Pseudomonas aeruginosa PAO1 after 20 hrs by broth microdilution method

[13] = physchem; conditions: PBS
Description: Solubility of the compound in PBS

| SMILES | MIC [1] [µg/mL] | logD [2] | MIC [3] [µg/mL] | also measured |
| --- | --- | --- | --- | --- |
| Cc1cc(NC[C@@H](N)C2CC2)n2nc(N[C@H](CC#N)c3cccc(Cl)c3)nc2n1 | > 128 | 1.3 | 8 (≈ 19.5 µM) | – |
| Cc1ccc2[nH]c(N[C@H](CC#N)c3cccc(Cl)c3)nc2n1 | > 128 | – | 4 (≈ 12.8 µM) | Ratio IC50 [4]: 13; IC50 [5]: 4760 nM; IC50 [6]: 370 nM |
| COC(=O)N1CC[C@@H](Oc2cccc([C@@H](CC#N)Nc3nc4nc(C)ccc4[nH]3)c2)C1 | > 128 | 2.8 | > 128 | – |
| Cc1cc(N2CCN(C)CC2)c2[nH]c(N[C@H](CC#N)c3cccc(Cl)c3)nc2n1 | 64 (≈ 156 µM) | – | 2 (≈ 4.88 µM) | MIC [7]: > 128 µg/mL; MIC [8]: 8 µg/mL (≈ 19.5 µM); MIC [9]: 128 µg/mL (≈ 312 µM); MIC [10]: 128 µg/mL (≈ 312 µM); MIC [11]: 8 µg/mL (≈ 19.5 µM); MIC [12]: > 128 µg/mL |
| Cc1cc(N2CC(N(C)C)C2)n2nc(N[C@H](CC#N)c3cccc(Cl)c3)nc2n1 | > 128 | 2.8 | 4 (≈ 9.73 µM) | – |
| Cc1cc(N2CCN(C)CC2)n2nc(N[C@H](CC#N)c3cccc(Cl)c3)nc2n1 | > 128 | 2.4 | 4 (≈ 9.73 µM) | IC50 [5]: 41000 nM; IC50 [6]: 97 nM; solubility [13]: > 729 µg/mL |
| Cc1cc(Nc2ccc(C)c(Cl)c2)n2nc(Cc3ccccc3)nc2n1 | – | > 5 | – | – |
| Cc1cc(=O)n2nc(N[C@H](C)c3cccc(Cl)c3)nc2[nH]1 | – | – | > 128 | – |
| Cc1cc(N[C@H]2C[C@@H]2c2ccccc2)n2nc(N[C@H](C)c3cccc(Cl)c3)nc2n1 | > 128 | 4.9 | 2 (≈ 4.77 µM) | – |
| Cc1cc(N2CCN(C)CC2)n2nc(N[C@H](C)c3cccc(Cl)c3)nc2n1 | > 128 | 3.3 | 32 (≈ 82.9 µM) | – |
| COC(=O)N1CCN(Cc2cccc([C@@H](CC#N)Nc3nc4nc(C)ccc4[nH]3)c2)C(=O)C1 | – | 1.4 | – | – |
| Cc1cc(N2CC(N(C)C)C2)n2nc(N[C@H](C)c3cccc(Cl)c3)nc2n1 | > 128 | – | > 128 | – |
| COC(=O)N1CCC(Oc2cccc([C@@H](CC#N)Nc3nc4[nH]c(C)cc(=O)n4n3)c2)CC1 | > 128 | 0.64 | 8 (≈ 17.7 µM) | IC50 [5]: > 200000 nM; IC50 [6]: 450 nM |

Second part, led by results:

| MIC [1] [µg/mL] | logD [2] | MIC [3] [µg/mL] | SMILES | also measured |
| --- | --- | --- | --- | --- |
| > 128 | 3.1 | 1 (≈ 2.39 µM) | COC(=O)N1CC[C@@H](Cc2cccc([C@@H](CC#N)Nc3nc4nc(C)ccc4[nH]3)c2)C1 | – |
| 64 (≈ 141 µM) | 3 | 1 (≈ 2.21 µM) | Cc1cc(NC[C@@H](N)c2ccsc2)n2nc(N[C@H](CC#N)c3cccc(Cl)c3)nc2n1 | – |
| > 128 | – | 0.25 (≈ 0.51 µM) | COC(=O)N1CCC(CCCO)(Cc2cccc([C@@H](CC#N)Nc3nc4nc(C)ccc4[nH]3)c2)CC1 | – |
| > 128 | 2.1 | 2 (≈ 4.46 µM) | COC(=O)N1CCC(O)(Cc2cccc([C@@H](CC#N)Nc3nc4nc(C)ccc4[nH]3)c2)CC1 | – |
| > 128 | 4.4 | 1 (≈ 2.22 µM) | Cc1cc(Nc2ccc3nc(C)sc3c2)n2nc(N[C@H](C)c3cccc(Cl)c3)nc2n1 | – |
| > 128 | 3.9 | 0.06 (≈ 0.123 µM) | CC(=O)N1CCc2cc(Nc3cc(C)nc4nc(N[C@H](CC#N)c5cccc(Cl)c5)nn34)ccc21 | IC50 [5]: 2400 nM; IC50 [6]: < 6 nM; solubility [13]: < 0.6 µg/mL |
| > 128 | 4.6 | 0.125 (≈ 0.271 µM) | CC(=O)N1CCc2cc(Nc3cc(C)nc4nc(N[C@H](C)c5cccc(Cl)c5)nn34)ccc21 | – |
| 64 (≈ 141 µM) | 3.3 | 0.25 (≈ 0.552 µM) | Cc1cc(NC[C@@H](N)c2cccs2)n2nc(N[C@H](CC#N)c3cccc(Cl)c3)nc2n1 | – |
| > 128 | – | 1 (≈ 2.16 µM) | COC(=O)N1CCC(CO)(Cc2cccc([C@@H](CC#N)Nc3nc4nc(C)ccc4[nH]3)c2)CC1 | – |
| – | 2 | 2 (≈ 4.5 µM) | COC(=O)c1ccc(Oc2cccc([C@@H](CC#N)Nc3nc4[nH]c(C)cc(=O)n4n3)c2)cc1 | – |
| > 128 | 3.5 | 0.25 (≈ 0.511 µM) | CO/N=C/C1(Cc2cccc([C@@H](CC#N)Nc3nc4nc(C)ccc4[nH]3)c2)CCN(C(=O)OC)CC1 | – |
| > 128 | 3.8 | 0.5 (≈ 1.11 µM) | Cc1cc(NCCc2c(C)n[nH]c2C)n2nc(N[C@H](CC#N)c3cccc(Cl)c3)nc2n1 | IC50 [5]: 74000 nM; IC50 [6]: 12 nM; solubility [13]: 23.8 µg/mL (≈ 52.9 µM) |
